The values below come from article PMC5915154, “Aloe-emodin as drug candidate for cancer therapy” (Oncotarget, 2018).

For test [1], the system named is CCRF-CEM cells. The experiment in a line: Mitochondrial membrane potential (JC-1, flow cytometry). Type of test: cell-based, human. The conditions noted are these: CCRF-CEM, 0.01, 0.1, and 1 μM, 48 h. The text has this:
The JC-1 Mitochondrial Membrane Potential Assay Kit (Cayman Chemical, Ann Arbor, MI, USA) was applied for the detection of MMP by flow cytometry according to the manufacturer’s instructions. The cationic dye, 5, 5’, 6, 6’- tetrachloro- 1, 1’, 3, 3’- tetraethylbenzimidazolylcarbocyanine iodide (JC-1) enters the mitochondria and changes its fluorescent properties based on the aggregation of the probe. In healthy cells having high MMP, JC-1 forms complexes known as J-aggregates with intense red fluorescence. On the other hand, in cells with low MMP, JC-1 remains in its monomeric form showing green fluorescence. […] A LSR-Fortessa FACS analyzer (Becton–Dickinson) was used to detect the J-aggregate form of JC-1 with an excitation wavelength of 535 ± 20 nm and an emission wavelength of 590 ± 20 nm as well as the monomeric form of JC-1 at excitation and emission wavelengths of 485 and 535 nm, respectively. The results were analyzed by the FlowJo software (Celeza, Olten, Switzerland). 2×10^4 cells were counted for each experiment which were repeated in triplicate.
(Flow cytometry measures light scatter and fluorescence of single cells or particles in a stream.)

Test [2] has as its system CCRF-CEM cells. Put plainly: Annexin V/PI detection of apoptosis and necrosis. Type of test: cell-based, human. Particulars: 0.1 μM, 72 h. The text has this:
A commercial annexin V/PI detection apoptosis kit was used to detect early apoptosis and necrosis according to the manufacturer’s instructions (Life Technologies, Carlsbad, CA, USA). Annexin V is a calcium-dependent phospholipid-binding protein, which binds to phosphatidylserine (PS). PS is predominantly located at the inner side of the plasma membrane under normal conditions and moves to outer surface of the membrane upon the onset of early apoptosis. This can be detected FITC-labeled annexin V. PI is a marker of late apoptosis and necrosis. We treated aliquots of 1×10^6 CCRF-CEM cells with 0.5-, 1-, 2- and 4-fold IC50 of Aloe-emodin for 48, 72 or 96 h, respectively. After washing the cells with PBS, they were stained with annexin V/FITC at room temperature for 10-15 min. Subsequently, cells were washed again and stained with PI in the dark. Then, the results were analyzed by a BD Accuri™ C6 flow cytometer at excitation wavelength 488 nm and emission wavelength 530 nm to record annexin V/FITC signals. The fluorescence of PI was detected at 488 nm excitation and was measured by a 610/20 nm band pass filter. At least three independent experiments were performed..

The test system of test [3] is CCRF-CEM cells. The experiment in a line: Cell cycle analysis (PI, flow cytometry). The conditions noted are these: 0.01 μM and 0.1 μM, 24 h. Type of test: cell-based, human. The method, then:
The cells were collected, washed in PBS and fixed with ice-cold 96% ethanol. After washing the cells with PBS again, the cells were dissolved in PBS and stained with propidium iodide (PI, Sigma-Aldrich) at a final concentration of 50 μg/mL for 15 min in the dark. Cell cycle analyses were performed using a BD Accuri™ C6 Flow cytometer (Becton-Dickinson, Heidelberg, Germany) at 488 nm excitation wavelength, and emission was measured by a 610/20 nm band pass filter. All experiments were performed at least in triplicates. The protocol has been recently reported by us.

For test [4], the system named is drug-sensitive CCRF-CEM leukemia cells. Put plainly: Resazurin reduction assay, CCRF-CEM. The format is cell-based. Particulars: Homo sapiens, 72 h. The text has this:
(§1) The cell lines used in the present work, their origins and maintenance conditions were previously reported. In brief, drug-sensitive CCRF-CEM and multidrug resistant P-glycoprotein-over-expressing CEM/ADR5000 leukemia cells, MDA-MB-231-pcDNA3 breast cancer cells and their transfectant subline MDA-MB-231-BCRP clone 23, HCT116 (p53^+/+) colon cancer cells and its knockout clone HCT116 (p53^-/-), U87.MG glioblastoma multiform cells and their transfectant subline U87.MGΔEGFR as well as HEK293 human embryonic kidney cells transfected with or without a cDNA for ABCB5 were used. The human peripheral mononuclear cells (PMNC) were isolated from fresh blood samples of a healthy donor by using Histopaque® (Sigma-Aldrich, Taufkirchen, Germany).
(§2) Resazurin reduction assay was conducted to test the cytotoxicity of the compounds. This assay is based on the reduction of resazurin to resorufin by viable cells. […] Briefly, aliquots of 0.5×10^4 adherent cells which were allowed to attach overnight and 1×10^4 suspension cells per well were seeded in 96-well-plates with or without the addition of varying concentrations of the test substance to get a total volume of 200 μL/well. After 72 h incubation and addition of resazurin (Sigma-Aldrich) for 4 h, staining was measured by an Infinite M2000 ProTM plate reader (Tecan, Germany) using an excitation wavelength of 544 nm and an emission wavelength of 590 nm. Each assay was independently performed for at least three times, with six parallel replicates each. The protocol has been recently reported. Fifty percent inhibition concentrations (IC50) represent the drug concentrations required to inhibit 50% of cell proliferation, which were fitted with nonlinear regression using GraphPad® Prism7.

In test [5] the test system is multidrug-resistant P-glycoprotein-overexpressing CEM/ADR5000 leukemia cells. The experiment in a line: Resazurin reduction assay, CEM/ADR5000. Type of test: cell-based, human. The conditions noted are these: for IC50: Homo sapiens, CEM/ADR5000, resazurin assay, 72 h.
Text: as §1, §2
Background: The colour change of resazurin is a common sign of viable cells or microbes.

For the compound `COc1cccc2c1C(=O)c1c(O)c3c(c(O)c1C2=O)C[C@@](O)(C(=O)CO)C[C@@H]3O[C@H]1C[C@H](N)[C@H](O)[C@H](C)O1` [doxorubicin, Doxorubicin, reference compound], the “MMP depolarization (JC-1 fluorescence)” value in the test on CCRF-CEM cells [1] was “shift from red to green fluorescence”. Further, the “apoptotic or necrotic cell death” value in the test with CCRF-CEM cells [2] is “late apoptosis and early necrosis”. In addition, in the test with CCRF-CEM cells [3], the cell cycle arrest entry is “induced both S- and G2/M-arrest”. Also, the IC50 in test [4] was found to be 0.0007 µM; in test [5] it was 11 µM.
As for `Cc1cc(O)c2c(c1)C(=O)c1cc(O)cc(O)c1C2=O` [emodin, Emodin], the IC50 came out at 35.6 µM in test [4] and 35.3 µM in test [5].
Consider `COc1cc(O)c2c(c1)C(=O)c1cc(C)cc(O)c1C2=O` [physcion], for which the IC50 was 124 µM in test [4] and 74.8 µM in test [5]. Moreover, the “degree of resistance (IC50 CEM/ADR5000 divided by IC50 CCRF-CEM)” value in test [5] (collateral sensitivity of CEM/ADR5000) was 0.61 fold.
As to `O=C(O)c1cc(O)c2c(c1)C(=O)c1cccc(O)c1C2=O` [rhein], the figures for the 50% inhibitory concentration (IC50) in test [4] and in test [5] were 34.4 µM and 46.9 µM, respectively.

As a reminder, the IC50 is the concentration needed to halve the response being measured. A low value points to higher potency.
